The values that follow come from PubChem BioAssay AID179 (DTP/NCI, 2004).

One may read the EC50 as the midpoint of the concentration-response curve. As usually defined, the IC50 is the concentration at which inhibition is half-maximal.

The subject of the assay is CEM cells HIV-1 protection, formazan growth assay. Kind of assay: NCI AIDS Antiviral Assay. As to conditions: for IC50: measured here: growth of uninfected CEM cells. On the procedure: The ability of compounds to protect human CEM cells from HIV-1 infection is measured as a screen for new compounds capable of inhibiting the HIV virus. Five concentrations of drug were tested on uninfected and infected cells and cell growth was measured using a soluble formazan assay. […] Compounds that provided at least 50% protection were retested. Compounds that provided at least 50% protection on retest were listed as moderately active. Compounds that reproducibly provided 100% protection were listed as confirmed active. […] Note that the inability to provide protection could be due to toxicity.

Active and inactive are the calls of the source.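 How the source made its calls: active means compounds giving half or more protection of infected cells from virus-caused growth loss, again on retest; inactive means the rest.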 Where a SMILES comes first, the peptide text is derived from it.

For the molecule `CN1CCc2ccccc2/C(=C(/O)c2ccccc2)C1=O`, the result was inactive.

As for `COC(=O)C1(C(=O)OC)CC2=C(S(=O)(=O)c3ccccc3)C[C@@H](C#N)[C@H]2C1`, the EC50 was greater than 200 µM and the IC50 is 110 µM.

On to `CC1=C(C(=O)CC(=O)C(=O)Nc2cc(C)ccc2C)Sc2ccccc2N1`, for which the EC50 was greater than 10 µM and the IC50 was greater than 10 µM.

As to `OCc1nnn(-c2ccccc2)c1CO`, the EC50 was greater than 200 µM and the IC50 was greater than 200 µM.

For the molecule `Cc1cn(C2CCC(CO)(CO)CC2O)c(=O)[nH]c1=O` (stereo not given), the EC50 was greater than 871 µM and the IC50 was greater than 871 µM.

As for `COc1ccccc1NC(=O)/C(=C/n1c(=S)[nH]c2cc(C)ccc21)C(C)=O`, the EC50 was greater than 200 µM and the IC50 amounted to 151 µM.

As to `C[C@]12CC[C@H](OC(=O)CCC(=O)O)C[C@H]1CC[C@@H]1[C@@H]2CC[C@]2(C)C(c3ccc(=O)oc3)CC[C@]12O` (stereo not given in full), the EC50 is greater than 0.2 µM and the IC50 was 0.0162 µM.

On to `O=C1C(=O)C(CN2CCOCC2)=C(N2CCOCC2)C(N2CCOCC2)=C1CN1CCOCC1`, for which the EC50 is greater than 200 µM and the IC50 came to 77.6 µM.

As for `Cc1ccc(/C=N/Nc2cc(C)c3cccc(C)c3n2)s1`, the EC50 was greater than 200 µM and the IC50 amounted to 5.75 µM.

As for `Cc1c(NC(=O)C(C)(C)Br)c(=O)oc2c(C)c3occc(=O)c3cc12`, the EC50 was greater than 16.6 µM and the IC50 is greater than 16.6 µM.

`CCOC(=O)c1oc2cc(O)ccc2c(=O)c1-c1ccc(OC)c(OC)c1`: the EC50 was greater than 200 µM and the IC50 turned out to be 51.3 µM.

`CC(=O)c1ccc(NC(=O)COC(=O)c2cccc3c(=O)c4ccccc4[nH]c23)cc1`: the result was inactive.

With `CN1C(=O)N(C)[C@@H]2CC(=O)c3ccc(C(F)(F)F)cc3N2C1=O`, the EC50 was greater than 288 µM and the IC50 was greater than 288 µM.

For `Nc1nc2c3nc(Nc4ccccc4)sc3nc(=O)n2c2sc(Nc3ccccc3)nc12`, the EC50 was greater than 5.89 µM and the IC50 is greater than 5.89 µM.

`Cc1ccc(Nc2nc(C)c(C(=O)C/C(=N\NC(N)=S)C(=O)Nc3ccc(Cl)cc3C)s2)cc1`: the EC50 was greater than 200 µM and the IC50 is greater than 200 µM.

In the case of `C[Si](C)(CCC(=O)O)O[Si](C)(C)CCC(=O)O`, the EC50 was greater than 646 µM and the IC50 is greater than 646 µM.

For `C/C=C(/C)C(=O)O[C@@H]1c2c(C)coc2C[C@H]2CC[C@H](O)[C@H](C)[C@]21C`, the EC50 is greater than 200 µM and the IC50 stood at 58.9 µM.

As for `N/C(=N\N=C\c1ccc(C(F)(F)F)cc1)NO`, the EC50 is greater than 427 µM and the IC50 is greater than 427 µM.

As for `C/C=C1/CN2CCC34C5=CC(=O)C(c6cc7c(cc6OC)N(C)C6=C(C(=O)OC)CC8(CC)CCCN9CCC67C98)=CC5=NC23CCC1C4C(=O)OC` (stereo not given), the EC50 is greater than 200 µM and the IC50 was 4.9 µM.

Take `Cc1cn([C@H]2C[C@@H]3[C@@H](COC(CCN=[N+]=[N-])N3O)O2)c(=O)[nH]c1=O` (stereo not given in full): the EC50 is 72.4 µM and the IC50 was greater than 200 µM.

Take `CCCCCC/C=C/CCCCCCCc1cccc(O)c1C(=O)O`: the EC50 is greater than 102 µM and the IC50 is 63.1 µM.

As to `C1=Nc2ccc(cc2)N=Cc2ccc(cc2)OCc2cccc(n2)COc2ccc1cc2`, the EC50 is greater than 100 µM and the IC50 is greater than 100 µM.

Take `O=C1C(=O)N(c2ccc(Cl)cc2)C(=O)C(=Nc2cccc3c(=O)[nH][nH]c(=O)c23)C1c1nc2ccccc2o1` (stereo not given): the result was inactive.

Take `COc1cc2c(cc1O)C(CSC)Cc1cc(OC)c(OC)cc1N(C)CCC2` (stereo not given): the EC50 was greater than 200 µM and the IC50 was found to be 38.9 µM.

As for `COC(=O)CC(C(C(=O)OC)C(=O)OC)N1C(=O)OCC1c1ccccc1` (stereo not given), the EC50 was greater than 135 µM and the IC50 was greater than 135 µM.

Regarding `O=Cc1c2c(cc3c1CC1(C3)Cc3cc4c(c(C=O)c3C1)CCCC4)CCCC2`, the EC50 is greater than 200 µM and the IC50 was found to be 123 µM.

On to `CCOC(=O)c1c(O)cn2c1[nH]c1cccc3cccc2c31`, for which the EC50 is greater than 100 µM and the IC50 was determined as 25.7 µM.

Consider `CC(=O)c1cc(-c2ccccn2)c(=O)n2ccccc12`, for which the EC50 was greater than 200 µM and the IC50 was 112 µM.

Consider `CN(C)C(=N)OCc1ccccc1`, for which the EC50 is greater than 200 µM and the IC50 was greater than 200 µM.

On to `Cc1cn(C2CC(/[N+]([O-])=N/Nc3ccc([N+](=O)[O-])cc3)C(CO[Si](C)(C)C(C)(C)C)O2)c(=O)[nH]c1=O` (stereo not given), for which the EC50 is greater than 200 µM and the IC50 was 7.41 µM.

For `CS(=O)(=O)CS(=O)(=O)OCCCl`, the EC50 is greater than 1050 µM and the IC50 came to 182 µM.

As for `NCCOc1c2occc2cc2ccc(=O)oc12`, the EC50 is greater than 275 µM and the IC50 is 20.4 µM.

Regarding `BrCc1ccc(C[P+](c2ccccc2)(c2ccccc2)c2ccccc2)cc1`, the EC50 was greater than 200 µM and the IC50 is 3.89 µM.

Consider `c1ccc2c(c1)SC1=C(SC(=C3SC4=C(S3)Sc3ccccc3S4)S1)S2`, for which the EC50 was greater than 100 µM and the IC50 is greater than 100 µM.

Consider `CC1OC(=O)N(CCCC=C2SCCCS2)C1=O` (stereo not given), for which the result was inactive.

As for `C[C@]12CCCCC1(O)C[C@H](C(=O)O)CC2` (stereo not given in full), the outcome was inactive.

In the case of `COC(=O)CC1C2CC3C(C2=O)C13` (stereo not given), the EC50 was greater than 200 µM and the IC50 is greater than 200 µM.

Turning to `CCCCN=c1ssc(=O)n1CCCC`, the EC50 is greater than 200 µM and the IC50 was 26.3 µM.

In the case of `COc1ccc(/C=C2\Cc3ccccc3C2=O)cc1OC`, the EC50 is greater than 35.5 µM and the IC50 is greater than 35.5 µM.

As to `CC(C)OP(=O)(OC(C)C)C([CH2][Sn]([CH3])([CH3])[Cl])P(=O)(OC(C)C)OC(C)C`, the EC50 is greater than 457 µM and the IC50 turned out to be 8.32 µM.

Regarding `O=Nc1c2cc3ccccc3[nH]c-2c2ccccc12`, the EC50 was greater than 40.7 µM and the IC50 was found to be 20.4 µM.

`COc1nc2cc3c(cc2n2cccc12)oc1ccccc13`: the EC50 was 155 µM and the IC50 is greater than 200 µM.

Consider `CC(C)=CCC[C@@H](C)c1c2[nH]c3ccccc3sc-2c(C)c(=O)c1=O`, for which the EC50 is greater than 200 µM and the IC50 was 4.27 µM.

Regarding `COc1ccc2[nH]c3c(c2c1)CCNC3CC(C)CCC=C(C)C` (stereo not given), the EC50 is greater than 100 µM and the IC50 came out at 6.31 µM.

`O=C1NS(=O)(=O)C2C(Cl)=C(Cl)C3(Cl)C2C13Cl` (stereo not given): the EC50 was greater than 776 µM and the IC50 is greater than 776 µM.

Turning to `Cc1[nH]n(-c2ncc(C(=O)O)c(=O)[nH]2)c(=O)c1CCO`, the EC50 was greater than 200 µM and the IC50 was greater than 200 µM.

For the molecule `CSC(=O)/C=C1\SS/C(=C\C(=O)SC)S1`, the EC50 is greater than 200 µM and the IC50 is 3.09 µM.

As for `CCOC(=O)Nc1cc2c(c(N)n1)N=C(c1ccc3ccccc3c1)CN2`, the EC50 was greater than 200 µM and the IC50 came out at 0.309 µM.

As to `COc1c(I)c(OC)c2c(c1I)O[C@@H]1OCC[C@H]21`, the EC50 is greater than 501 µM and the IC50 was determined as 240 µM.

For `CCCCOC(=O)C(=O)/C(=C\n1c(=S)[nH]c2ccccc21)C(=O)C=C(C)C`, the EC50 was greater than 200 µM.

For the molecule `O=C1NN=C(c2c[nH]c3ccccc23)CC1NCc1ccccc1` (stereo not given), the EC50 is greater than 200 µM and the IC50 was greater than 200 µM.

For `CCC(C)C(NC(=O)CNC(=O)C(Cc1cnc[nH]1)NC(=O)C(NC(=O)C(CS)NC(=O)C(CCC(N)=O)NC(=O)C(NC(=O)C(NC(=O)C(CO)NC(=O)C(NC(=O)C(CC(N)=O)NC(=O)C(NC(=O)C(CO)NC(=O)C1CCCN1C(=O)CNC(=O)C(NC(=O)CN)C(C)O)C(C)O)C(C)C)C(C)O)C(C)C)C(C)O)C(=O)NC(CCCN=C(N)N)C(N)=O` (stereo not given) (H-GTGPSTNVSTVQCTHGIR-NH2; configuration not given here), the EC50 is greater than 50.1 µM and the IC50 is greater than 50.1 µM.

Turning to `C[C@@H](CCO)OC1OC(COC(=O)C(C)(C)C)C(OC(=O)C(C)(C)C)C(OC(=O)C(C)(C)C)C1OC(=O)C(C)(C)C` (stereo not given in full), the EC50 was greater than 200 µM and the IC50 stood at 12 µM.

As for `NC(=O)NC1C(c2ccccc2)=NOC1C(N)=O` (stereo not given), the EC50 is greater than 200 µM and the IC50 is greater than 200 µM.

For `O=C1/C(=C/c2ccccc2Cl)Cc2ccccc21`, the EC50 was greater than 5.37 µM and the IC50 is greater than 5.37 µM.

`COC1(C)C=NCC(C)(C)NC(=O)C(C)(OC)C=NCC(C)(C)NC1=O` (stereo not given): the EC50 is greater than 14.1 µM and the IC50 is greater than 14.1 µM.

`CC(=O)N(C)c1ccc(/C=C2\C=Cc3ccccc32)cc1`: the EC50 is greater than 49 µM and the IC50 worked out at 12.3 µM.

Regarding `COc1ccc(C2(O)CCCCC2)cc1`, the EC50 is greater than 66.1 µM and the IC50 is greater than 66.1 µM.

Take `O=C1NC2(CCCCC2)N=C2C(Cl)CCCC12Cl` (stereo not given): the EC50 is greater than 200 µM and the IC50 is greater than 200 µM.

Regarding `COc1ccc(Cc2nc3ccccc3[nH]2)cc1OC`, the EC50 was greater than 200 µM and the IC50 was 89.1 µM.

`CSCCCNC(=O)c1csc(-c2csc(CCNC(=O)CNC(=O)OC(C)(C)C)n2)n1`: the EC50 is greater than 501 µM and the IC50 is 234 µM.

For `Nc1nc(N)c(N=O)c(Nc2ccccc2)n1`, the EC50 was greater than 200 µM and the IC50 worked out at 33.9 µM.

Turning to `Clc1ccc(C2=NOC(C3CCCCC3)C2)cc1` (stereo not given), the EC50 was greater than 38 µM and the IC50 is greater than 38 µM.

As to `O=[N+]([O-])c1ccc(Cl)cc1N/N=C/c1ccnc2ccccc12`, the outcome was inactive.

As to `Clc1cccc(NC(c2ccccc2)=[N+]2CCCCC2)c1`, the EC50 is greater than 200 µM and the IC50 stood at 30.9 µM.

`CCOC(=O)c1cn(CC)c2ccc3ccsc3c2c1=O`: the result was inactive.

For `CSC(=NCCc1c[nH]c2ccccc12)NC#N`, the EC50 was greater than 200 µM and the IC50 was greater than 200 µM.

`C[C@@H](CC(=O)OCc1ccccc1)OC1OC(COC(=O)C(C)(C)C)C(OC(=O)C(C)(C)C)C(OC(=O)C(C)(C)C)C1OC(=O)C(C)(C)C` (stereo not given in full): the EC50 is greater than 200 µM and the IC50 is greater than 200 µM.

Regarding `Cc1nc2nn(Cc3ccccc3)cc2c(=O)o1`, the EC50 was greater than 1020 µM and the IC50 worked out at 57.5 µM.
